Experimental data reported in patent US11982675B2, “Method of assessing ABC transporter activity using fluorescent dye accumulation assay” (CELLPHARMA KFT., priority 2017, dated 2024).
Numbering of substitutions follows the chain as printed.

How the values were obtained:
Assay type in all cases: cell-based
ABCG2 [1] = molecular target: T1, ABCG2 (Homo sapiens, UniProt Q9UNQ0); assay: Mitoxantrone (MX) accumulation by flow cytometry, ABCG2-expressing PLB and A431 cells; set-up: expressed in transfected cells; host or cells: PLB-985 and A431 cells (retroviral transduction); settings: control and ABCG2 expressing PLB and A431 cells, 1 μM MX, 60 minutes
T1 sequence (Q9UNQ0 1-655): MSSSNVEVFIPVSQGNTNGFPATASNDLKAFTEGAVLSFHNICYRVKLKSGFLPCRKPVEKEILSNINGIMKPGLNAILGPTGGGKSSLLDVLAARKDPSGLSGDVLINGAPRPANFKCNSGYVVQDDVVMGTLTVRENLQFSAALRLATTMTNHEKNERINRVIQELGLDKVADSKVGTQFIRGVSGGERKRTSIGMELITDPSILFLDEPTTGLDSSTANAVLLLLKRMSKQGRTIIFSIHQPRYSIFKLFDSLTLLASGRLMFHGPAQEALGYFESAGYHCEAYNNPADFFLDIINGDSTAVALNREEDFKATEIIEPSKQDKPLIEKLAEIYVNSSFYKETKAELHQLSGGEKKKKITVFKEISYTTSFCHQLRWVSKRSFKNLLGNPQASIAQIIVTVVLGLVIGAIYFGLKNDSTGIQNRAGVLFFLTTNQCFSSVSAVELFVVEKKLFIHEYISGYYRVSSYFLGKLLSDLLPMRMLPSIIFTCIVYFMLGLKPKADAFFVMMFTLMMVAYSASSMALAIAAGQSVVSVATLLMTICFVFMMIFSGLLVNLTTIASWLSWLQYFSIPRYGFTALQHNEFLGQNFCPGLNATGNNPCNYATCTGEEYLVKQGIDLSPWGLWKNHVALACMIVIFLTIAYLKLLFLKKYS

ABCB1 = molecular target: T2, ABCB1 (Homo sapiens, UniProt P08183); assay: PhenGreen (PG) accumulation by flow cytometry, ABCB1-expressing PLB and A431 cells
T2 construct: expressed in transfected cells; host or cells: PLB-985 and A431 cells (retroviral transduction)
Procedure: (§1) In order to follow the time-dependent accumulation of PG, 5×10^5 cells were washed twice with 1 mL DPBS (1 g/L D-glucose with phosphate buffered saline), then pre-incubated in the uptake buffer (1 mM EDTA in DPBS) for 10 minutes at 37° C. Thereafter the cells were incubated in the uptake buffer with various concentrations of PhenGreen SK diacetate (PGD), with or without transporter inhibitor, at 37° C., for 1-60 minutes. Dye uptake was stopped by the addition of 150 μl ice-cold EDTA-DPBS, the cells were kept on ice until the measurements (see FIG. 12.). […]
(§2) The cells (5×10^5) were incubated with 0.5 μM PGD or 1 μM (Mx) with or without inhibitors, for 30 (PGD) or 60 (Mx) minutes at 37° C. The reaction was stopped by the addition of ice-cold EDTA-DPBS and fluorescence was measured as described above.
(§3) All experiments were performed at least three times. […] Results were expressed as median±standard deviation. The MDR activity factor % (MAF %—see refs [Homolya L et al. Br J Cancer. 1996; Holló Z et al. Anticancer Res. 1998; 18: 2981-7., Sarkadi et al. U.S. Pat. No. 5,872,014 1999]) was calculated as follows: MAF %=(((MFIinh−MFI0)/MFIinh)×100), wherein MFIinh and MFI0 are the median fluorescence intensity (MFI) with (inh) or without (0) inhibitor. […]

ABCC1 = molecular target: T3, ABCC1 (Homo sapiens, UniProt P33527); assay: PhenGreen (PG) accumulation by flow cytometry, ABCC1-expressing HL-60 and HEK cells
T3 construct: expressed in transfected cells; host or cells: HL-60 and HEK-293 cells (retroviral transduction)
Procedure: as §1, §2, §3

PLB, HEK or A431 cells = assay: Cell viability assay after PGD loading; settings: PGD loading 30 min at 37° C.; PLB cells counted for 9 days, HEK or A431 cells cultured 72 hours
Procedure: Control and ABCG2 expressing PLB-985 cells (1×10^6) were pre-incubated in the uptake buffer for 10 minutes at 37° C., then incubated with or without 0.5 μM PGD for 30 minutes at 37° C. The PGD-treated cells were sorted based on PG fluorescence by FACS Aria III Cell sorter (BD Bioscience, San Jose, CA, with 488 nm blue laser excitation and 530/30 nm emission). The sorted cells were suspended in 3 mL RMPI media in 6 well plates and live cell number was measured each day, dead cells were excluded by TO-PRO™-3 Iodide.
In order to estimate the EC50 values, HEK or A431 cells were treated with […] for 30 min at 37° C. in the EDTA-DPBS buffer, then washed and cultured in 2 mL DMEM media in 12 well plates for 72 hours. […]
In the first set of these experiments (FIG. 7, Panel A) we used control and ABCG2 expressing PLB cells, incubated in the PGD loading media with or without 0.5 μM PGD for 30 minutes at 37° C. The PGD-treated cells were then sorted based on PG fluorescence by flow cytometry, and the cells were resuspended in RPMI media. […]
In the second set of experiments HEK or A431 cells were treated with the indicated concentrations of PGD for 30 min at 37° C. in the loading media, then washed and cultured in normal cell culturing media for 72 hours. Live cell number was determined by flow cytometry, dead cells excluded by TO-PRO-3 staining (see Methods). […]

[2] = test system: human peripheral blood mononuclear cells (PBMCs); assay: Functional test of ABCG2, ABCB1 or ABCC1 transporter function in PBMCs
Procedure: Freshly drawn venous blood samples were collected from healthy donors into EDTA coated tubes. Peripheral blood mononuclear cells (PBMCs) were isolated by Ficoll-histopaque density gradient centrifugation. The PBMCs were washed twice with 1 mL EDTA-DPBS uptake buffer (1 mM EDTA and 1 g/L D-glucose with phosphate buffered saline). The various cell populations can be stained with cluster of differentiation markers (CD markers), conjugated by e.g. APC, APC-Cy7, Pacific blue, or other fluorescent marker. After CD labeling the cells were incubated in the uptake buffer with 1 μM PhenGreen SK diacetate (PGD), or 0.25 μM Calcein-AM (CaAM) or 1 μM mitoxantrone (Mx), with or without selective transporter inhibitors, for 30 minutes (PGD and CaAM) or 60 minutes (Mx) at 37° C. […] The reaction was stopped by the addition of ice-cold EDTA-DPBS and fluorescence was measured as described above.
[…] cell populations, i.e. granulocytes, monocytes and lymphocytes have been visualized by flow cytometry as described in the Materials and Methods chapter (Panel A). […] MDR activity factors were calculated as described above based on the measurements of the accumulation of the three fluorescent dyes, with or without inhibitors, in the respective leukocyte populations (Panel C).

ABCG2 [3] = molecular target: T1, ABCG2; assay: PhenGreen (PG) accumulation by flow cytometry, ABCG2-expressing PLB and A431 cells; set-up: expressed in transfected cells; host or cells: PLB-985 and A431 cells (retroviral transduction)
Procedure: In order to follow the time-dependent accumulation of PG, 5×10^5 cells were washed twice with 1 mL DPBS (1 g/L D-glucose with phosphate buffered saline), then pre-incubated in the uptake buffer (1 mM EDTA in DPBS) for 10 minutes at 37° C. Thereafter the cells were incubated in the uptake buffer with various concentrations of PhenGreen SK diacetate (PGD), with or without transporter inhibitor, at 37° C., for 1-60 minutes. Dye uptake was stopped by the addition of 150 μl ice-cold EDTA-DPBS, the cells were kept on ice until the measurements (see FIG. 12.). For assessing the PGD concentration dependence of PG accumulation, 5×10^5 PLB-985 or A431 cells, expressing the ABCB1 or ABCG2 transporters, or HL-60 and HEK-293 cells, expressing ABCC1, were washed twice with 1 mL DPBS, then pre-incubated in EDTA-DPBS medium for 10 minutes at room temperature. The cells were incubated in EDTA-DPBS with 0.1-5 μM of PGD at 37° C. for 30 minutes. Dye uptake was stopped by the addition of 150 μl ice-cold EDTA-DPBS. The cells were kept on ice until the measurement.
as §2
All experiments were performed at least three times. Data analysis was performed using FACSDiva v6.1.3 Software (BD Bioscience, San Jose, CA), flow cytometry figures were prepared with the Attune Acoustic Focusing Cytometer v1.25 Software (Applied Biosystems, Life Technologies, Carlsbad, CA, USA). Results were expressed as median±standard deviation. The MDR activity factor % (MAF %—see refs [Homolya L et al. Br J Cancer. 1996; Holló Z et al. Anticancer Res. 1998; 18: 2981-7., Sarkadi et al. U.S. Pat. No. 5,872,014 1999]) was calculated as follows: MAF %=(((MFIinh−MFI0)/MFIinh)×100), wherein MFIinh and MFI0 are the median fluorescence intensity (MFI) with (inh) or without (0) inhibitor. The EC50 analysis was carried out using the Origin 8.6. software.

ABCG2 [4] = molecular target: T4, ABCG2 (Homo sapiens, UniProt Q9UNQ0, K86M); assay: as above; settings: PLB cells expressing ABCG2-K86M
T4 construct: expressed in transfected cells; host or cells: PLB-985 and A431 cells (retroviral transduction)
T4 sequence (Q9UNQ0 1-655 K86M): T1 sequence (Q9UNQ0 1-655) with K86M
Procedure: as §1, §2, §3

ABCG2 [5] = molecular target: T1, ABCG2; assay: PG accumulation examined by confocal microscopy in PLB and PLB-ABCG2 cells; set-up: expressed in transfected cells; host or cells: PLB-985 cells (retroviral transduction); settings: PLB-ABCG2 cells, 0.5 μM PGD, 30 minutes, no inhibitor
Procedure: For confocal microscopy the cells (5×10^5) were washed twice with 1 mL DPBS, then pre-incubated with 1 μg/mL Alexa Fluor-647 conjugated wheat-germ agglutinin (WGA-A647) in uptake buffer for 5 minutes at room temperature. Thereafter the cells were incubated with 0.5 μM PGD with or without transporter inhibitors for 30 minutes at 37° C. PGD uptake was stopped by washing the cells with 1 mL DPBS. The images were acquired by a Zeiss LSCM 710 microscope using a 63×NA=1.4 Plan Apo objective. Images were captured and analyzed by Zen2 (Blue edition) Software.
In order to examine the wider applicability of the PGD-based assay for functional ABCG2 transporter studies, we examined PG accumulation in control PLB cells and in PLB cells expressing ABCG2, by using fluorescence (confocal) microscopy.
In these experiments, in order to label the plasma membrane compartment of the cells, we also included the staining of live PLB cells with a fluorescent anti-WGA antibody.

T2 sequence (P08183 whole entry): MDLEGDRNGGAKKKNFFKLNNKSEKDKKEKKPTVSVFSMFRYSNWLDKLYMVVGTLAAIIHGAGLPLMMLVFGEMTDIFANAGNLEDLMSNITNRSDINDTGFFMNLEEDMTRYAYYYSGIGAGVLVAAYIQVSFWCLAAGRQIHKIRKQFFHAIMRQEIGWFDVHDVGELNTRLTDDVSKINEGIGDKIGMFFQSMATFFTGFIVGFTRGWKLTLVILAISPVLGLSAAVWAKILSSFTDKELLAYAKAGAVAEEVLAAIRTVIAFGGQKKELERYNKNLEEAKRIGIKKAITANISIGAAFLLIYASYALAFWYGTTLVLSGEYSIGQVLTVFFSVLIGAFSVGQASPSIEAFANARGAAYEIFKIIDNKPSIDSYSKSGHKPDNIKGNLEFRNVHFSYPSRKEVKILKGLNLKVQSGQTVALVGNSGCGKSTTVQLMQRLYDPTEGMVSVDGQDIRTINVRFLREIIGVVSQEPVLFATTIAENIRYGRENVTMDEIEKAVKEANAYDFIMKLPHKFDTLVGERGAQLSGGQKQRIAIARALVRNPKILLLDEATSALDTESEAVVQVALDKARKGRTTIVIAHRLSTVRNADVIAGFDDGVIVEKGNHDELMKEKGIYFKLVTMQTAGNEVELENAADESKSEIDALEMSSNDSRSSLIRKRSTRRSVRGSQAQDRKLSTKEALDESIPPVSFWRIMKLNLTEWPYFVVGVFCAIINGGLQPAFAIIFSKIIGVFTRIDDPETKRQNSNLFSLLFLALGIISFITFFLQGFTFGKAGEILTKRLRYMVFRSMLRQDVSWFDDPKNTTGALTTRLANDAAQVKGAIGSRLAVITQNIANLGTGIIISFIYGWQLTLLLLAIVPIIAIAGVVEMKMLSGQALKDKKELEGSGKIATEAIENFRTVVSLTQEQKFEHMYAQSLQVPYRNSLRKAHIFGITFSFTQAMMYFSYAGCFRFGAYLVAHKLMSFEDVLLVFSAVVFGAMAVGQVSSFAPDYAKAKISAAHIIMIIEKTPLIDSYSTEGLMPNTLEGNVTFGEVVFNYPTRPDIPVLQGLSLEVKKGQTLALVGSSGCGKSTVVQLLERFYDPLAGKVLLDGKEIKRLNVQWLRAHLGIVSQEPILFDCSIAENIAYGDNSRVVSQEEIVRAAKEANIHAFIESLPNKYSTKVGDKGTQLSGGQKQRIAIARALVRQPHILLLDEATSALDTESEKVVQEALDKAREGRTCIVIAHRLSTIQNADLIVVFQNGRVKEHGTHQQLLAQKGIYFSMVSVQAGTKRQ
T3 sequence (P33527 whole entry): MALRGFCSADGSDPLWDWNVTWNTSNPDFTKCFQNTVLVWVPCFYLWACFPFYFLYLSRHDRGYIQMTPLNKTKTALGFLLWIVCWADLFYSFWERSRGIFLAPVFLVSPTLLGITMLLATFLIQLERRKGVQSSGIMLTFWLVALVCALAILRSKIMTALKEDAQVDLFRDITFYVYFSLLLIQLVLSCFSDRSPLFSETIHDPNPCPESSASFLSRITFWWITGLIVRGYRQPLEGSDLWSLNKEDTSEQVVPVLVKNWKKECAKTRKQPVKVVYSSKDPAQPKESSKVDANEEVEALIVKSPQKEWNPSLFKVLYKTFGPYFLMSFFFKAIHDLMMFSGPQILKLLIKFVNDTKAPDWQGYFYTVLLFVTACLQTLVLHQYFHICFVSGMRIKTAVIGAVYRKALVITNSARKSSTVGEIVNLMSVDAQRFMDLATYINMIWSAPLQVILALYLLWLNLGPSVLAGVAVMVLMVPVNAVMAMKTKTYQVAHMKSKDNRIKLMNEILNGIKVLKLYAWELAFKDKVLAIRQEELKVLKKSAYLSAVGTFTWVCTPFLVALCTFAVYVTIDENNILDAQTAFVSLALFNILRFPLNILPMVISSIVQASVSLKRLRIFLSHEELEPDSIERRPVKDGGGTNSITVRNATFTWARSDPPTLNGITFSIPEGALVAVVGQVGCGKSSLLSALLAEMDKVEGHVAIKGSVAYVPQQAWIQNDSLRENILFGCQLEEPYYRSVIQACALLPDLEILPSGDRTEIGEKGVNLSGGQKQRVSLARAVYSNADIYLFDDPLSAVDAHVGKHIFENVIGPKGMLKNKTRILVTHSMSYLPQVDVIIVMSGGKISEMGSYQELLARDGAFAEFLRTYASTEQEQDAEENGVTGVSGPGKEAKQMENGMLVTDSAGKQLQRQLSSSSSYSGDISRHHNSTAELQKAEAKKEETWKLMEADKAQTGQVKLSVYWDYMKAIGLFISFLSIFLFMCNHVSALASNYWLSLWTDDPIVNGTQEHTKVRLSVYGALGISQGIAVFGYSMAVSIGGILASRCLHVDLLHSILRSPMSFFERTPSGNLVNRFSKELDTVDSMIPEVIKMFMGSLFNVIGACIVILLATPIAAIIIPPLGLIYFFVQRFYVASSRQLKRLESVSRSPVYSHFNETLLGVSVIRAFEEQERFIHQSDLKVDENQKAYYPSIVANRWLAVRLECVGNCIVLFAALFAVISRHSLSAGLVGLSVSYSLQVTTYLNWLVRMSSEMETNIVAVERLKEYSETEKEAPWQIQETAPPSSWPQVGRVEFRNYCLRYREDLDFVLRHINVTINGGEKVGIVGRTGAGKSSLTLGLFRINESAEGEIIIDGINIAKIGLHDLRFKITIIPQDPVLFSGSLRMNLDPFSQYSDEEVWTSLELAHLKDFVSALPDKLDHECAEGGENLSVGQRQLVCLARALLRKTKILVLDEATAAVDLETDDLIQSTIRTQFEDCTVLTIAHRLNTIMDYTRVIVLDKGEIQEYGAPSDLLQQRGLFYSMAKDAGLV

O=C1c2c(O)ccc(O)c2C(=O)c2c(NCCNCCO)ccc(NCCNCCO)c21 [MX, mitoxantrone]
MDR activity factor (MAF) based on MX extrusion (ABCG2 [1]): essentially similar results as obtained by using PG accumulation

CC(=O)Oc1cc2c(cc1Cl)C1(OC(=O)c3cc(C(=O)Nc4cc5cccnc5c5ncccc45)ccc31)c1cc(Cl)c(OC(C)=O)cc1O2 [PGD, PhenGreen SK diacetate]
applicability for calculating the MDR activity factor, compared with mitoxantrone (ABCB1; ABCB1 expressing PLB cells): similarly or better applicable than MX
PG accumulation in ABCB1 expressing cells versus control parental cells (ABCB1; PLB and A431 cells, 0.1-5 μM PGD, EDTA-DPBS, 30 minutes at 37° C.): significantly lower levels of PG than their control parental cells
applicability for calculating the MDR activity factor, compared with mitoxantrone (ABCC1; ABCC1 expressing HL-60 cells): similarly or better applicable than MX
PG accumulation in ABCC1 expressing cells versus control parental cells (ABCC1; HL-60 and HEK cells, 0.1-5 μM PGD, EDTA-DPBS, 30 minutes at 37° C.): significantly lower levels of PG than their control parental cells
effect of PG accumulation on cell growth (PLB, HEK or A431 cells): no measurable effect on the growth of the cells
transporter substrate activity in mononuclear cell populations ([2]; granulocytes, monocytes and lymphocytes, 1 μM PGD, 30 minutes at 37° C.): active substrate in each cell type
MAF factor compared with other dyes ([2]; monocytes, ABCG2, ABCB1 and ABCC1 with selective inhibitors): higher MAF factor than Calcein AM and mitoxantrone for each of the transporters
time in which the increase in cellular PG fluorescence saturated (ABCG2 [3]; PLB cells, 0.5 to 2.5 μM PGD in the media, 37° C.): less than 30 minutes
effect of ABCG2 protein on accumulated PG fluorescence (ABCG2 [3]; PLB vs PLB-ABCG2 cells, low (below 1 μM) PGD, 30 minutes at 37° C., flow cytometry): major difference in the amount of the accumulated PG fluorescence

PhenGreen SK [PG]
effect of non-functional catalytic mutant ABCG2-K86M on PG accumulation (ABCG2 [4]): no effect on PG accumulation
cytoplasmic PG accumulation (confocal microscopy) (ABCG2 [5]): practically did not accumulate PG
MDR activity factor (MAF) from PG accumulation in absence or presence of Ko143 (ABCG2 [3]; PLB cells expressing wild-type ABCG2): high activity level
